Experimental data as given in ChEMBL document CHEMBL4837198, “Design, synthesis and biological evaluation of 1H-indazole derivatives as novel ASK1 inhibitors” (Eur J Med Chem, 2021).
Calls of active or inactive are those of the source. The rule behind the calls is not given here.

Assays:
[1] = target: T1, Mitogen-activated protein kinase kinase kinase 5 (Homo sapiens, UniProt Q99683); experiment: Inhibition of ASK1 in human HEK293 cells transfected with AP1 assessed as inhibition of AP1-induced firefly luciferase activity preincubated for 1 hr followed by PMA stimulation and measured after 6 hrs by luciferase reporter assay; format: cell-based
T1 sequence (Q99683 whole entry): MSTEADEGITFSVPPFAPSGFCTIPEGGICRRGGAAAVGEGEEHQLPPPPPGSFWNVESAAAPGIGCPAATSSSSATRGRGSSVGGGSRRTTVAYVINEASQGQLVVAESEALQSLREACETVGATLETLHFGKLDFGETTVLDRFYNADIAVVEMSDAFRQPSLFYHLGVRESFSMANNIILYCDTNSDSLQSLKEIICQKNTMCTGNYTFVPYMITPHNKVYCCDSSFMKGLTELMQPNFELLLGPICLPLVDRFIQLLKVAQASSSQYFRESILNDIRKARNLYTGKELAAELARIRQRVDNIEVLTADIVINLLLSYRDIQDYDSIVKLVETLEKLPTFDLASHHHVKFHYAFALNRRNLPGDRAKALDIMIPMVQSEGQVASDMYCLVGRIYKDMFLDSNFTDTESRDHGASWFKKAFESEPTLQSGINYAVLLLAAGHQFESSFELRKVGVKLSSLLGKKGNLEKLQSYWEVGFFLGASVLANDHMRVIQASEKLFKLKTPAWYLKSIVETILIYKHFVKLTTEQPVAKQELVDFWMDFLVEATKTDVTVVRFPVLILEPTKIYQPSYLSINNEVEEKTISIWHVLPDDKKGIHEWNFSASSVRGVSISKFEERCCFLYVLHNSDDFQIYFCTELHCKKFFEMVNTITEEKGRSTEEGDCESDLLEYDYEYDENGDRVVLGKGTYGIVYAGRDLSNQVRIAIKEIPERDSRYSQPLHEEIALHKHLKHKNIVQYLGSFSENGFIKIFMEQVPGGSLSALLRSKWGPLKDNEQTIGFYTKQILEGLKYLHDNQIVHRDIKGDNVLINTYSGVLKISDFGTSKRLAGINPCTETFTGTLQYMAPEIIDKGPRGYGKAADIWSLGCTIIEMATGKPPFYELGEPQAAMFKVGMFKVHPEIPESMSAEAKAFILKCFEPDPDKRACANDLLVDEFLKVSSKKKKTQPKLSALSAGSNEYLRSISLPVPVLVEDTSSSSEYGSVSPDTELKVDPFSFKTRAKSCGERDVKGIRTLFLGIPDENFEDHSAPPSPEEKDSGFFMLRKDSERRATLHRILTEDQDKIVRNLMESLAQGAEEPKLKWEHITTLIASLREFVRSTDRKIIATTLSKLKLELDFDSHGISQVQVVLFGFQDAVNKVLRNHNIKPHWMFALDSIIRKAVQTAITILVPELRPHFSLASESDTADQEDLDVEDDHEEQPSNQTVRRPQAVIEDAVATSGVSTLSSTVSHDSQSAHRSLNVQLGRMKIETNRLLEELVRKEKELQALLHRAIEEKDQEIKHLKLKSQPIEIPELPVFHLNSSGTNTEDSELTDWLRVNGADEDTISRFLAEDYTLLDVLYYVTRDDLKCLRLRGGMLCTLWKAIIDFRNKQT

[2] = target: T1, Mitogen-activated protein kinase kinase kinase 5; experiment: Inhibition of human full length recombinant ASK1 using STK-Substrate-3 biotin as substrate in presence of ATP measured after 2 hrs by […] kinase assay
HT-29 [3] = experiment: Antiapoptotic activity against in human HT-29 cells assessed as inhibition of TNFalpha-induced Bax/ Bcl2 ratio by Western blot analysis; format: functional, cell-based
HT-29 [4] = experiment: Antiinflammatory activity in human HT-29 cells assessed as suppression of […]-stimulated p-P38 expression by Western blot analysis; format: functional, cell-based
HT-29 [5] = experiment: Antiapoptotic activity against in human HT-29 cells assessed as inhibition of TNFalpha-induced down regulation of Bcl2 expression by Western blot analysis; format: functional, cell-based
HT-29 [6] = experiment: Antiinflammatory activity in human HT-29 cells assessed as suppression of […]-stimulated p-JNK expression by Western blot analysis; format: functional, cell-based
HT-29 [7] = experiment: Induction cell survival in TNFalpha-induced human HT-29 cells at 10 uM pretreated for 24 hrs followed by TNFalpha stimulation measured after 2 hrs by CCK8 assay; format: functional, cell-based
HT-29 [8] = experiment: Antiapoptotic activity against in human HT-29 cells assessed as inhibition of TNFalpha-induced caspase 3 activity by Western blot analysis; format: functional, cell-based
HT-29 [9] = experiment: Antiinflammatory activity in human HT-29 cells assessed as suppression of […]-stimulated p-ASK1 expression by Western blot analysis; format: functional, cell-based
HT-29 [10] = experiment: Antiapoptotic activity against in human HT-29 cells assessed as inhibition of TNFalpha-induced upregulation of Bax expression by Western blot analysis; format: functional, cell-based
HT-29 [11] = experiment: Cytotoxicity against human HT-29 cells assessed as cell survival at 25 uM incubated for 24 hrs by CCK8 assay; format: cell-based; details: ht-29, 24 h

| Compound | IC50 [1] | IC50 [2] | other results |
| --- | --- | --- | --- |
| COc1cc(-c2n[nH]c3ccc(-c4nncn4C(C)C)cc23)cc(-n2cnc(C3CC3)c2)c1 | 11300 nM | 48.6 nM |  |
| CC(C)n1cnnc1-c1ccc2[nH]nc(-c3cc(N4CCOCC4)cc(-n4cnc(C5CC5)c4)c3)c2c1 |  | 75.1 nM |  |
| c1cc(-c2n[nH]c3ccc(-c4nncn4C4CC4)cc23)cc(-n2cnc(C3CC3)c2)c1 | 7040 nM | 50 nM |  |
| c1cc(-c2n[nH]c3ccc(-c4nncn4C4CCCC4)cc23)cc(-n2cnc(C3CC3)c2)c1 | 5500 nM | 54.1 nM |  |
| Cc1ccc(-c2n[nH]c3ccc(-c4nncn4C(C)C)cc23)cc1-n1cnc(C2CC2)c1 | 8730 nM | 56.9 nM |  |
| c1cc(-c2n[nH]c3ccc(-c4nncn4C4CCCCC4)cc23)cc(-n2cnc(C3CC3)c2)c1 |  | 243 nM |  |
| Cc1cc(F)c(C(=O)Nc2cccc(-c3nncn3C(C)C)n2)cc1-n1cnc(C2CC2)c1 [SELONSERTIB] |  |  | Activity (HT-29 [3]): Active; Activity (HT-29 [4]): Active; Activity (HT-29 [5]): Active; Activity (HT-29 [6]): Active; Activity (HT-29 [7]): Active; Activity (HT-29 [8]): Active; Activity (HT-29 [9]): Active; Activity (HT-29 [10]): Active; Activity (HT-29 [11]): Non-Toxic |
| CC(C)n1cnnc1-c1ccc2[nH]nc(-c3cccc(C(=O)NC4CC4)c3)c2c1 |  | 271 nM |  |
| CC(C)n1cnnc1-c1ccc2[nH]nc(-c3ccc(N4CCOCC4)c(-n4cnc(C5CC5)c4)c3)c2c1 | 11600 nM | 31.8 nM |  |
| CC(C)n1cnnc1-c1ccc2[nH]nc(-c3cccc(-n4cnc(C5CC5)n4)c3)c2c1 | 8880 nM | 37 nM |  |
| COCCNC(=O)c1cccc(-c2n[nH]c3ccc(-c4nncn4C(C)C)cc23)c1 |  | 245 nM |  |
| COc1ccc(-n2cnc(C3CC3)c2)cc1-c1n[nH]c2ccc(-c3nncn3C(C)C)cc12 |  | 270 nM |  |
| CC(C)n1cnnc1-c1ccc2[nH]nc(-c3cccc(NC(=O)c4ccc(C(F)(F)F)cc4)c3)c2c1 |  | 197 nM |  |
| CCOC(C)n1cc(-c2cncc(-c3n[nH]c4ccc(-c5nncn5C(C)C)cc34)c2)cn1 (stereo unspecified) |  | 277 nM |  |
| O=C(Nc1cccc(-c2n[nH]c3ccc(-c4nnc[nH]4)cc23)c1)c1ccc(C(F)(F)F)cc1 |  | 532 nM |  |
| c1cc(-c2n[nH]c3ccc(-c4cn[nH]c4)cc23)cc(-n2cnc(C3CC3)c2)c1 |  | 275 nM |  |
| c1cc(-c2n[nH]c3ccc(-c4nncn4C4CCC4)cc23)cc(-n2cnc(C3CC3)c2)c1 | 7280 nM | 70 nM |  |

The next lines start with results.

| IC50 [1] | IC50 [2] | Compound | other results |
| --- | --- | --- | --- |
|  | 855 nM | CC(C)n1cnnc1-c1ccc2[nH]nc(-c3cccc(-c4ccnn4C)c3)c2c1 |  |
| 8330 nM | 63.6 nM | CC(C)n1cnnc1-c1ccc2[nH]nc(-c3cccc(-c4cnn(C)c4)c3)c2c1 |  |
|  | 283 nM | CC(C)n1cnnc1-c1ccc2[nH]nc(-c3cccc(-c4cccnc4)c3)c2c1 |  |
| 4460 nM | 29.9 nM | CCOC(C)n1cc(-c2cccc(-c3n[nH]c4ccc(-c5nncn5C(C)C)cc34)c2)cn1 (stereo unspecified) | Activity (HT-29 [3]): Active; Activity (HT-29 [4]): Active; Activity (HT-29 [5]): Active; Activity (HT-29 [6]): Active; Activity (HT-29 [7]): Active; Activity (HT-29 [8]): Active; Activity (HT-29 [9]): Active; Activity (HT-29 [10]): Active; Activity (HT-29 [11]): Non-Toxic |
|  | 19.8 nM | CCS(=O)(=O)Nc1cccc(-c2n[nH]c3ccc(-c4nncn4C(C)C)cc23)c1 |  |
| 12100 nM | 50.1 nM | CC(C)n1cnnc1-c1ccc2[nH]nc(-c3cccc(-c4cnn(C5CCOCC5)c4)c3)c2c1 |  |
|  | 733 nM | CC(C)n1cnnc1-c1ccc2[nH]nc(-c3cccc(S(C)(=O)=O)c3)c2c1 |  |
|  | 62.2 nM | CC(C)n1cnnc1-c1ccc2[nH]nc(-c3cccc(-n4cnc(C5CC5)c4)c3)c2c1 |  |
|  | 144 nM | CC(C)n1cnnc1-c1ccc2[nH]nc(-c3cccc(C(=O)Nc4cnn(C)c4)c3)c2c1 |  |
|  | 74.2 nM | CC(C)n1cnnc1-c1ccc2[nH]nc(-c3cccc(C(N)=O)c3)c2c1 |  |
| 9810 nM | 26.9 nM | COCn1cc(-c2cccc(-c3n[nH]c4ccc(-c5nncn5C(C)C)cc34)c2)cn1 |  |
